The values that follow come from patent publication US20190030009A1, “COMPOUNDS AND COMPOSITIONS FOR THE TREATMENT OF CRYPTOSPORIDIOSIS” (Novartis AG, priority 2016, published 2019).

One data set deals with Cryptosporidium parvum. Nature of the data set: Cytopathic effect (CPE) based assay, C. parvum infected HCT-8 cells. Conditions: HCT-8 host cell viability (CellTiter-Glo), 48 hours treatment, read-out: Cp CPE EC50. The protocol: Human ileocecal colorectal adenocarcinoma cells (HCT-8 [HRT-18] ATCC, CCL-34) were maintained in T-175 flasks (Corning, 431080) in complete growth medium (RPMI-1640 medium (Gibco, 11875) supplemented with 10% heat-inactivated horse serum (Gibco, 26050), 1×MEM non-essential amino acids (Gibco, 11140), 10 mM HEPES (Gibco, 15630), 100 units/mL penicillin, and 100 units/mL streptomycin) at 37° C. and 5% CO2 in a humidified incubator. Cultures were passaged twice weekly using 10 mL of 1×Phosphate-Buffered Saline (PBS) without Ca^2+ and Mg^2+ (Gibco, 20012) for washing and 3-5 mL per T-175 flask of TrypLE Express Enzyme (Gibco, 12604) for dissociation of adherent cells.
Cryptosporidium parvum oocysts purchased from the Sterling Laboratory, University of Arizona (Iowa isolate) were purified from infected calf feces using discontinuous sucrose and cesium chloride centrifugation gradients and stored in PBS solution containing 0.01% Tween 20, 100 units/mL penicillin and 100 units/mL gentamicin.
Excystation and infection protocols were developed following established methods with some modifications (Gut & Nelson, 1999, Upton et aL, 1995, Bessoff et aL, 2013). Briefly, oocysts were primed in 1 mL of 10 mM hydrochloric acid in 1× Hank's Balanced Salt Solution (HBSS) (Gibco, 14025) for 10 minutes with agitation at 1000 rpm, 37° C. on an Eppendorf thermomixer, then washed twice with 1 mL of room temperature non-acidic 1× HBSS by centrifugation at 13,000 rpm for 3 minutes at 25° C. Primed oocysts were further excysted at a concentration of 1×10^6 oocysts/μL in parasite infection medium consisting of a pre-warmed and pre-gassed 1:1 formulation of Leibovitz's L-15 medium (Gibco, 11415) and UltraCULTURE medium (Lonza, 12-725F) supplemented with 2 mM sodium taurocholate (Sigma, 86339-1), 10% heat-inactivated horse serum, and 200 μM L-ascorbic acid (Sigma, 95210) at 25° C. for 10 minutes. HCT-8 monolayer cells were infected with excysted cryptosporidium at a specified multiplicity of infection (MOI). All dilutions for subsequent assays were performed in parasite infection medium without sodium taurocholate. Pre-excysted oocysts were enumerated microscopically using a C-Chip disposable hemocytometer (NanoEnTek, DHC-N01).
Compound powders were dissolved in neat DMSO (Fisher, D4121) to 10 mM and stored at 4° C. prior to dilution into source plates. Dilutions were carried out using a Microlab STAR liquid handler (Hamilton) to obtain compound source plates containing the ten-point or eight-point three fold dilutions starting from 10 mM in duplicates. Source plates were stored at 4° C. prior to spotting into assay plates. Before administration, all compound source plates were equilibrated to room temperature. A specified volume of compounds from source plate were spotted to assay plate using an Echo Acoustic liquid handler (LABCYTE, 550) so that the final DMSO concentration was less than 0.5%. Each assay plate a specified number of DMSO-treated negative control wells and a well-studied potent active compound at 100 nM as positive control. As a quality control, all positive and negative-control wells were used to calculate a Z′-value and signal to noise ratio (S:N) for each plate.
Cryptosporidium spp are obligate-intracellular parasites that infect intestinal epithelial cells and the host cell is killed upon parasite egress. […] The loss of epithelial cells is due to both rapid parasite invasion/multiplication/egress and also pro-inflammatory immune response (Adams et al., 1994, Griffiths et al., 1994). We have observed a consistent cytopathic effect (CPE) in HCT-8 cells with C. spp infection the loss of viability of the host cells using CellTiter-Glo reagent.
Confluent HCT-8 cells in T-175 flasks were directly infected with excysted oocysts at an MOI (host to parasite) of 1:2 for C. parvum and 1:4 for C. hominis. The number of host-cells is determined using a NucleoCounter (Chemometec, NC-100) in a control flask. […]
Background: Cytopathic effects are the visible damage that an infection or toxin causes in cultured cells.

The nature of data set [1]: Cytotoxicity against HepG2. The class given is cell-based. Conditions: human, HepG2 cells (ATCC HB-8065), 5 days exposure. The protocol:
Cytotoxicity against HepG2 (ATCC# HB-8065), a human liver cancer cell line, was determined as previously described earlier (Manjunatha et al., 2015). Briefly, cells were seeded at a density of 10^5 cells per well, incubated at 37° C. for 24 h and exposed to two-fold serially-diluted compounds for 5 days. Cell viability was monitored using the Cell Proliferation Kit II (Invitrogen). The cytotoxicity values of selected compounds are reported in the fifth column [HepG2 CC50 (μM)] of Table II.

Some results are limits rather than exact numbers.

Take `CNC(=O)c1ccc(-c2cnn3ccc(C(=O)N(c4ccc(F)cn4)C(C)C)cc23)cn1` [Example 156]: the EC50 in the data set with Cryptosporidium parvum was 15.6 µM. Moreover, the CC50 at 5 days in data set [1] is above 50 µM.

For `CNC(=O)c1ccc(-c2cnn3ccc(C(=O)N(c4ccc(F)cn4)C4CC4)cc23)cc1` [Example 125], the EC50 in the data set on Cryptosporidium parvum amounted to 0.709 µM. The same compound registered a CC50 at 5 days in data set [1] of 25.5 µM. With `N#Cc1ccc(N(C(=O)c2ccn3ncc(-c4ccc(C(N)=O)cn4)c3c2)C2CC2)nc1` [Example 139], the EC50 in the data set with Cryptosporidium parvum amounted to 2.07 µM. Further, the CC50 at 5 days in data set [1] was 16.7 µM. In the same order, the values of `CNC(=O)c1ccc(-c2cnn3ccc(C(=O)N(CCO)c4ccc(C#N)cc4)cc23)cc1` [Example 110] are above 20 µM and 23.8 µM. On to `N#Cc1ccc(N(C(=O)c2ccn3ncc(-c4ccc(C(N)=O)cn4)c3c2)C2CC2)cc1` [Example 142], for which the EC50 with Cryptosporidium parvum is 0.379 µM. This compound also gave a CC50 at 5 days in data set [1] of 18.3 µM. In the same order, the values of `CN(C)C(=O)c1cc(-c2cnn3ccc(C(=O)N(C)c4ccc(C#N)cn4)cc23)cnc1N` [Example 87] are 0.415 µM and above 50 µM.

With `CNC(=O)c1ccc(-c2cnn3ccc(C(=O)N(c4ccc(C(F)(F)F)cn4)C(C)C)cc23)cn1` [Example 152], in the data set on Cryptosporidium parvum, the EC50 was found to be 0.456 µM. It took 14.9 µM to reach half-maximal cytotoxicity in data set [1] (CC50 at 5 days). For `CCN(C(=O)c1ccn2ncc(-c3ccc(C(=O)NC)nc3)c2c1)c1ccc(C(F)(F)F)cn1` [Example 157], the EC50 with Cryptosporidium parvum amounted to 0.295 µM. In data set [1], this compound displayed a CC50 at 5 days of 8.96 µM. On to `CNC(=O)c1ccc(-c2cnn3ccc(C(=O)N(c4ccc(C#N)cn4)C(C)C)cc23)nc1` [Example 154], for which the EC50 with Cryptosporidium parvum was found to be 0.964 µM. In addition, it took 45.7 µM to reach half-maximal cytotoxicity in data set [1] (CC50 at 5 days).

As to `CNC(=O)c1ccc(-c2cnn3ccc(C(=O)N(c4ccc(C#N)cc4)C4CC4)cc23)cn1` [Example 137], the EC50 in the data set with Cryptosporidium parvum was 0.35 µM. The compound also showed a CC50 at 5 days in data set [1] of 2.19 µM. Regarding `CNC(=O)c1ccc(-c2cnn3ccc(C(=O)N(c4ccc(C#N)cc4)C4CC4)cc23)nc1` [Example 141], the EC50 with Cryptosporidium parvum was found to be 0.344 µM. In data set [1], this compound returned a CC50 at 5 days of 20.8 µM.

`CNC(=O)c1ccc(-c2cnn3ccc(C(=O)N(c4ccc(C#N)cc4)C4CCC4)cc23)cn1` [Example 145]: the EC50 in the data set on Cryptosporidium parvum worked out at 0.417 µM. In data set [1], the CC50 at 5 days was 16.8 µM. For the compound `CN(C(=O)c1ccn2ncc(-c3cnc(Cl)c(N)c3)c2c1)c1ccc(C#N)cn1` [Example 98], the EC50 in the data set with Cryptosporidium parvum is 2.21 µM. This compound came in with a CC50 at 5 days in data set [1] of 10.2 µM. As for `CNC(=O)c1ccc(-c2cnn3ccc(C(=O)N(C)c4ccc(OC)nc4)cc23)cc1` [Example 122], the EC50 with Cryptosporidium parvum is above 20 µM. In data set [1], this compound gave a CC50 at 5 days of 15.8 µM. Turning to `CNC(=O)c1ccc(-c2cnn3ccc(N(C(=O)c4ccc(C#N)cn4)C4CC4)cc23)cc1` [Example 147], the EC50 with Cryptosporidium parvum is above 20 µM. For the same compound, in data set [1], the CC50 at 5 days stood at 32.7 µM. Regarding `CNC(=O)c1ccc(-c2cnn3ccc(C(=O)N(c4ccc(C#N)cc4)C(C)C)cc23)cn1` [Example 146], the EC50 with Cryptosporidium parvum is 0.329 µM. Also, half-maximal cytotoxicity in data set [1] (CC50 at 5 days) was put at 32.1 µM. `CN(C(=O)c1ccn2ncc(-c3ccc4c(cnn4C)c3)c2c1)c1ccc(C#N)cc1` [Example 17]: in the data set on Cryptosporidium parvum, the EC50 is 0.058 µM. Moreover, the CC50 at 5 days in data set [1] worked out at 2.51 µM. As to `CC1COc2cc(F)ccc2N1C(=O)c1ccn2ncc(-c3ccc(C(N)=O)cc3)c2c1` (stereo not shown) [Example 72], the EC50 in the data set with Cryptosporidium parvum was 1.4 µM. Further, it took 5.42 µM to reach half-maximal cytotoxicity in data set [1] (CC50 at 5 days). Consider `CN(C(=O)c1ccn2ncc(-c3ccc(C(N)=O)cc3)c2c1)c1ccc(F)cc1` [Example 20], for which the EC50 in the data set with Cryptosporidium parvum is 0.105 µM. This compound also returned a CC50 at 5 days in data set [1] of 5.42 µM. Take `CN(C(=O)c1ccn2ncc(-c3ccc(C(=O)O)cc3)c2c1)c1ccc(C#N)cn1` [Example 101]: the EC50 in the data set with Cryptosporidium parvum turned out to be 15.2 µM. In data set [1], this compound registered a CC50 at 5 days above 50 µM. For the compound `CN(C(=O)c1ccn2ncc(-c3ccc(C(=O)NCCN)cc3)c2c1)c1ccc(C#N)cn1` [Example 104], in the data set with Cryptosporidium parvum, the EC50 was found to be 3.61 µM. Moreover, the CC50 at 5 days in data set [1] is above 50 µM. With `NC(=O)c1ccc(-c2cnn3ccc(C(=O)N(c4ccc(F)c(F)c4)C4CC4)cc23)cc1` [Example 135], the EC50 with Cryptosporidium parvum turned out to be 0.279 µM. Further, the CC50 at 5 days in data set [1] turned out to be 31.1 µM. As for `CNC(=O)c1ccc(-c2cnn3ccc(C(=O)N(c4ccc(C#N)cn4)C4CC4)cc23)cc1` [Example 93], the EC50 with Cryptosporidium parvum was determined as 0.152 µM. This compound also returned a CC50 at 5 days in data set [1] of 28.1 µM. Consider `CNC(=O)c1ccc(-c2cnn3ccc(C(=O)N(c4ccc(F)c(F)c4)C4CC4)cc23)cc1` [Example 130], for which the EC50 in the data set on Cryptosporidium parvum is 0.235 µM. The compound further registered a CC50 at 5 days in data set [1] above 50 µM. On to `CN(C)CCNC(=O)c1ccc(-c2cnn3ccc(C(=O)N(C)c4ccc(C#N)cn4)cc23)cc1` [Example 115], for which the EC50 in the data set with Cryptosporidium parvum stood at 3.02 µM. The compound further showed a CC50 at 5 days in data set [1] of 2.7 µM. Regarding `CNC(=O)c1ccc(-c2cnn3ccc(C(=O)Nc4ccc(C#N)cn4)cc23)cc1` [Example 106], the EC50 with Cryptosporidium parvum is above 20 µM. In data set [1], the cytotoxic concentration (CC50) at 5 days is above 50 µM. In the same order, the values of `CCN(C(=O)c1ccn2ncc(-c3ccc(S(=O)(=O)NC)cc3)c2c1)c1ccc(C#N)cn1` [Example 140] are 10.3 µM and 26.1 µM. `CNC(=O)c1ccc(-c2cnn3ccc(C(=O)N(c4ccc(C#N)cn4)C(C)C)cc23)cn1` [Example 148]: the EC50 in the data set with Cryptosporidium parvum came out at 1.86 µM. The compound also came in with a CC50 at 5 days in data set [1] of 20.1 µM. For `CN(C(=O)c1ccn2ncc(-c3ccc(C(=O)NC4CCNCC4)cc3)c2c1)c1ccc(C#N)cn1` [Example 113], the EC50 with Cryptosporidium parvum is 19.4 µM. In data set [1], this compound displayed a CC50 at 5 days of 2.67 µM. Take `CCN(C(=O)c1ccn2ncc(-c3ccc(S(C)(=O)=O)cc3)c2c1)c1ccc(C#N)cn1` [Example 158]: the EC50 in the data set on Cryptosporidium parvum is 3.75 µM. In addition, half-maximal cytotoxicity in data set [1] (CC50 at 5 days) was put at 23 µM.

Take `CNC(=O)c1ccc(-c2cnn3ccc(C(=O)N(c4ccc(C#N)cn4)C4CCC4)cc23)nc1` [Example 155]: the EC50 in the data set with Cryptosporidium parvum was 1.01 µM. In data set [1], this compound had a CC50 at 5 days above 50 µM.

Regarding `CN(C(=O)c1ccc(C#N)cc1)c1ccn2ncc(-c3ccc(C(F)(F)F)cc3)c2c1` [Example 28], the EC50 with Cryptosporidium parvum is 2.82 µM. Further, in data set [1], the midpoint of cytotoxicity, the CC50 at 5 days, lay at 9.9 µM. As for `CN(C(=O)c1ccn2ncc(-c3ccc(C(F)(F)F)cc3)c2c1)c1ccc(C#N)cn1` [Example 13], the EC50 in the data set on Cryptosporidium parvum was 1.54 µM. In data set [1], the CC50 at 5 days was above 50 µM. Consider `CN(C(=O)c1ccn2ncc(-c3cnc(Cl)c(NS(C)(=O)=O)c3)c2c1)c1ccc(C#N)cn1` [Example 107], for which it took 39.7 µM to reach half-maximal cytotoxicity in data set [1] (CC50 at 5 days). With `CCN(C(=O)c1ccn2ncc(-c3ccc(C(=O)NC)nc3)c2c1)c1ccc(F)cn1` [Example 159], the EC50 in the data set with Cryptosporidium parvum came out at 5.37 µM. In addition, the CC50 at 5 days in data set [1] was 9.81 µM. With `CNC(=O)c1ccc(-c2cnn3ccc(C(=O)N(c4ccc(C(=O)O)cn4)C4CC4)cc23)cc1` [Example 128], the EC50 in the data set on Cryptosporidium parvum was above 20 µM. Besides, the CC50 at 5 days in data set [1] was above 50 µM. Compound `CCN(C(=O)c1ccn2ncc(-c3ccc(C(=O)NC)cc3)c2c1)c1ccc(C#N)c(OCCO)n1` [Example 162] showed a CC50 at 5 days in data set [1] of 24.4 µM. On the same count and under the same terms, the figure for `CNC(=O)c1ccc(-c2cnn3ccc(S(=O)(=O)N(c4ccc(C#N)cn4)C4CC4)cc23)cc1` [Example 164] is 6.98 µM.

One may read the EC50 as the concentration giving half of the maximal effect. A word on the CC50: it is the concentration that lowers cell viability or growth by half. Lower therefore signals greater toxicity to the cells.
